A word on the inhibition: it is how much of the control response was suppressed.

The target in assay [1] is Ribosomal protein S6 kinase alpha-4 (Homo sapiens) (UniProt O75676). Put plainly: Inhibition of human full length MSK2 expressed in baculovirus assessed as substrate phosphorylation using fluorescence-labelled peptides as substrate at 8 uM after 90 mins by microfluidic peptide phosphorylation assay.
The target in assay [2] is Protein kinase C alpha type (Homo sapiens) (UniProt P17252). Put plainly: Inhibition of human truncated PKC alpha expressed in baculovirus assessed as substrate phosphorylation using fluorescence-labelled peptides as substrate at 420 uM after 90 mins by microfluidic peptide phosphorylation assay.
The target in assay [3] is T1, Mitogen-activated protein kinase 12 (Homo sapiens) (UniProt P53778).
T1 sequence (whole entry): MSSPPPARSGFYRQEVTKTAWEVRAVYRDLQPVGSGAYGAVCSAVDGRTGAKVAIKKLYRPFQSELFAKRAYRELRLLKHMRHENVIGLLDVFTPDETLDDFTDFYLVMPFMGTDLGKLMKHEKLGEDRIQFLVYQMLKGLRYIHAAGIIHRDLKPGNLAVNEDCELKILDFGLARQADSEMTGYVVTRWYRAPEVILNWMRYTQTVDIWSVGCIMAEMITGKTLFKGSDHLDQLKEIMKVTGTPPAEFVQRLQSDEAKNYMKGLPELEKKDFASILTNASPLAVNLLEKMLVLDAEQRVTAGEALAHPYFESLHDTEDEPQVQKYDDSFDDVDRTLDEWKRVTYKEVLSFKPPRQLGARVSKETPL
Put plainly: Inhibition of human full length p38 gamma expressed in Escherichia coli cell assessed as substrate phosphorylation using fluorescence-labelled peptides as substrate at 420 uM after 90 mins by microfluidic peptide phosphorylation assay.

Assay [4] deals with MAP kinase-activated protein kinase 2 (Homo sapiens) (UniProt P49137). As to conditions: 0.1 uM.
Chain of MAP kinase-activated protein kinase 2 (Homo sapiens) (P49137 whole entry, looked up): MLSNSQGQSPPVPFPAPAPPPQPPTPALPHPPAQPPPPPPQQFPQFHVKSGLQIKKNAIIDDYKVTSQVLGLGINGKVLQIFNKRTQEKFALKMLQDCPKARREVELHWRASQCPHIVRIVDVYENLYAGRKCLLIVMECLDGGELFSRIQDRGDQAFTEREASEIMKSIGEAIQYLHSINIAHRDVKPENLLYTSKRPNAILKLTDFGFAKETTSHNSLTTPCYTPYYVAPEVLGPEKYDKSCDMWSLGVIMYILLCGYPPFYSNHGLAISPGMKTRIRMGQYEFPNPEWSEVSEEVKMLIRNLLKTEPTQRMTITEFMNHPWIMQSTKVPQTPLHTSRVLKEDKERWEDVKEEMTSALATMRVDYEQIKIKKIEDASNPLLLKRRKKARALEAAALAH
Description: Inhibition of human full length MAPKAPK2 expressed in baculovirus assessed as substrate phosphorylation using fluorescence-labelled peptides as substrate at 0.1 uM after 90 mins by microfluidic peptide phosphorylation assay
The target of assay [5] is T2, Aurora kinase C (Homo sapiens) (UniProt Q9UQB9).
T2 sequence (whole entry): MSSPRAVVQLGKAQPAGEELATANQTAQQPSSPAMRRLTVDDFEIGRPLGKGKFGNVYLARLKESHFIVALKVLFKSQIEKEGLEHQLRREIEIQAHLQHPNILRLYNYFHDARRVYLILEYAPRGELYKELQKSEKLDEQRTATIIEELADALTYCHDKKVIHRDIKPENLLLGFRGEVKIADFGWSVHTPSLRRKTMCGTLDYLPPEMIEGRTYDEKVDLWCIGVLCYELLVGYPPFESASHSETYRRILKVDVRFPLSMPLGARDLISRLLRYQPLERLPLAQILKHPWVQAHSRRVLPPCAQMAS
As to the kind of experiment: Inhibition of human full length AurC expressed in baculovirus assessed as substrate phosphorylation using fluorescence-labelled peptides as substrate at 0.06 uM after 90 mins by microfluidic peptide phosphorylation assay.

Assay [6] has as its target Casein kinase I isoform delta (Homo sapiens) (UniProt P48730). Put plainly: Inhibition of human CK1D catalytic domain expressed in Escherichia coli cell assessed as substrate phosphorylation using fluorescence-labelled peptides as substrate at 0.2 uM after 90 mins by microfluidic peptide phosphorylation assay.
The target of assay [7] is T3, Testis-specific serine/threonine-protein kinase 1 (Homo sapiens) (UniProt Q9BXA7).
T3 sequence (whole entry): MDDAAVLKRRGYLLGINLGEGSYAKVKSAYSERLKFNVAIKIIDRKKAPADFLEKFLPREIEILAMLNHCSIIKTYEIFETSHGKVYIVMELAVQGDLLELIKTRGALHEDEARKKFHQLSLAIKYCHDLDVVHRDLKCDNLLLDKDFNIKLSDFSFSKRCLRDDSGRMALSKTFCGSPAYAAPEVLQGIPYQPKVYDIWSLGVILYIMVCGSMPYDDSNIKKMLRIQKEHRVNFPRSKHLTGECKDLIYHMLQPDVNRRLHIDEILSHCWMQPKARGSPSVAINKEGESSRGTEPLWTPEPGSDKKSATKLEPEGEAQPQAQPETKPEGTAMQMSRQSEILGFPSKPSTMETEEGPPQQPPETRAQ
Put plainly: Inhibition of human full length TSSK1 expressed in baculovirus assessed as substrate phosphorylation using fluorescence-labelled peptides as substrate at 9 uM after 90 mins by microfluidic peptide phosphorylation assay.

Assay [8] concerns the target Casein kinase I isoform delta (Homo sapiens) (UniProt P48730). As to the kind of experiment: Inhibition of human CK1D catalytic domain expressed in Escherichia coli cell assessed as substrate phosphorylation using fluorescence-labelled peptides as substrate at 9 uM after 90 mins by microfluidic peptide phosphorylation assay.
The target of assay [9] is Hepatocyte growth factor receptor (Homo sapiens) (UniProt P08581). As to the kind of experiment: Inhibition of human MET cytoplasmic domain expressed in baculovirus assessed as substrate phosphorylation using fluorescence-labelled peptides as substrate at 2 uM after 90 mins by microfluidic peptide phosphorylation assay.
Chain of Hepatocyte growth factor receptor (Homo sapiens) (P08581 whole entry, the tested form may be a part): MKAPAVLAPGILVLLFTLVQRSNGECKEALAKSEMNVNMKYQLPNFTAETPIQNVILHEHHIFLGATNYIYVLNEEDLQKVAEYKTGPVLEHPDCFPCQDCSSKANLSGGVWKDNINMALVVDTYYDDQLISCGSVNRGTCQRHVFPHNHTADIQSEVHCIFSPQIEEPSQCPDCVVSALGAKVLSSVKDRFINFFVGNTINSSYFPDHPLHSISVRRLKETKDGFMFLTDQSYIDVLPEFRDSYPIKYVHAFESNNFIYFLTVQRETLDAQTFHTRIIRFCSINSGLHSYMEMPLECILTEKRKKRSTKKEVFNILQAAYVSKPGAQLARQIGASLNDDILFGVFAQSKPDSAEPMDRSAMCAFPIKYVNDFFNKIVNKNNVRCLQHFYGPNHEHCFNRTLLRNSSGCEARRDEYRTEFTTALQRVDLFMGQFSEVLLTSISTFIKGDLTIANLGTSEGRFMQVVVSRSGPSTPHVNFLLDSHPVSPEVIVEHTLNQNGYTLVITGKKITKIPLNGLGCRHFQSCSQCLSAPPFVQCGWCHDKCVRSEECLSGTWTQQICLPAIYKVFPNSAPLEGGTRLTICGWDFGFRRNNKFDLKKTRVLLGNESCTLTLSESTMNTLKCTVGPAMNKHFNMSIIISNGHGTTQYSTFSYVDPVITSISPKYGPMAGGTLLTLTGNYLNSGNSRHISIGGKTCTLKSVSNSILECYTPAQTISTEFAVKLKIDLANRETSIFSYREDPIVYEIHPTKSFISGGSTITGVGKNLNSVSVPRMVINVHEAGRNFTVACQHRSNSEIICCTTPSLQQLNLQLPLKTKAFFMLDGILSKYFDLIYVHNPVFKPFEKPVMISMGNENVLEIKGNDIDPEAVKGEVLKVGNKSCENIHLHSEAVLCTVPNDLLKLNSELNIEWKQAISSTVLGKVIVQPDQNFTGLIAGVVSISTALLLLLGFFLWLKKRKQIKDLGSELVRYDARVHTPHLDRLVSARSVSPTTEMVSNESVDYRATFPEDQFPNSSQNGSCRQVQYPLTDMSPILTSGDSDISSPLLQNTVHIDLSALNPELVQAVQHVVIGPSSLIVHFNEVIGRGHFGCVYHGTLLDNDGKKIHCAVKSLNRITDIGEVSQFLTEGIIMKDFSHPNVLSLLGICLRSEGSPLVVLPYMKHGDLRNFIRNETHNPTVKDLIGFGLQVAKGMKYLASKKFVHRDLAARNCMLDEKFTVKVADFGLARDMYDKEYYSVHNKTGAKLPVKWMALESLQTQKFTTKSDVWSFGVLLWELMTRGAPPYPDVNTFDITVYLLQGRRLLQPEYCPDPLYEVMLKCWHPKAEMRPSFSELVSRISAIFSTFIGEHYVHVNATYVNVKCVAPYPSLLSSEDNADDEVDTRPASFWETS
Assay [10] concerns the target Protein kinase C eta type (Homo sapiens) (UniProt P24723). Put plainly: Inhibition of human truncated PKC eta expressed in baculovirus assessed as substrate phosphorylation using fluorescence-labelled peptides as substrate at 95 uM after 90 mins by microfluidic peptide phosphorylation assay.
Assay [11] concerns the target T4, Cytoplasmic tyrosine-protein kinase BMX (Homo sapiens) (UniProt P51813).
T4 sequence (whole entry): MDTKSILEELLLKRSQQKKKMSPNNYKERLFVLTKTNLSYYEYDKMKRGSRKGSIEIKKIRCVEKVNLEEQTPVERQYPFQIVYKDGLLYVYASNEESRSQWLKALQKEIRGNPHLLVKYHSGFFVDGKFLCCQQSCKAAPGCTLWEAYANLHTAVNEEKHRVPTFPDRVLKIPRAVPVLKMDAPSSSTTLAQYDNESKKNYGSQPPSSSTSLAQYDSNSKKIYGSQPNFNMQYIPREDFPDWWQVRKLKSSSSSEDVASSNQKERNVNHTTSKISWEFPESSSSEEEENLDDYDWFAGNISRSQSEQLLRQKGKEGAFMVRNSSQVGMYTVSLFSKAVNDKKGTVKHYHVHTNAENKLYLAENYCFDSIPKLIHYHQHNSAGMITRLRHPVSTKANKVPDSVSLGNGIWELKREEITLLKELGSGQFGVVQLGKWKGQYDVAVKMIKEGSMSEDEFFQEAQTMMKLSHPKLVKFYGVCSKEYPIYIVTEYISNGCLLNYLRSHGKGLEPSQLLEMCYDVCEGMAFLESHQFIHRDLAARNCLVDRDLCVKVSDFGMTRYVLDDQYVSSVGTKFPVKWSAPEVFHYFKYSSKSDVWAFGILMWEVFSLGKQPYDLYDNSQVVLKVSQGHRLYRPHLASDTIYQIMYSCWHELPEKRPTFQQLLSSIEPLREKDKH
Put plainly: Inhibition of human full length BMX expressed in baculovirus assessed as substrate phosphorylation using fluorescence-labelled peptides as substrate at 95 uM after 90 mins by microfluidic peptide phosphorylation assay.

The target in assay [12] is Calcium/calmodulin-dependent protein kinase type II subunit delta (Homo sapiens) (UniProt Q13557). As to the kind of experiment: Inhibition of human full length CAMK2D expressed in baculovirus assessed as substrate phosphorylation using fluorescence-labelled peptides as substrate at 1000 uM after 90 mins by microfluidic peptide phosphorylation assay.
Chain of Calcium/calmodulin-dependent protein kinase type II subunit delta (Homo sapiens) (Q13557 whole entry, the tested form may be a part): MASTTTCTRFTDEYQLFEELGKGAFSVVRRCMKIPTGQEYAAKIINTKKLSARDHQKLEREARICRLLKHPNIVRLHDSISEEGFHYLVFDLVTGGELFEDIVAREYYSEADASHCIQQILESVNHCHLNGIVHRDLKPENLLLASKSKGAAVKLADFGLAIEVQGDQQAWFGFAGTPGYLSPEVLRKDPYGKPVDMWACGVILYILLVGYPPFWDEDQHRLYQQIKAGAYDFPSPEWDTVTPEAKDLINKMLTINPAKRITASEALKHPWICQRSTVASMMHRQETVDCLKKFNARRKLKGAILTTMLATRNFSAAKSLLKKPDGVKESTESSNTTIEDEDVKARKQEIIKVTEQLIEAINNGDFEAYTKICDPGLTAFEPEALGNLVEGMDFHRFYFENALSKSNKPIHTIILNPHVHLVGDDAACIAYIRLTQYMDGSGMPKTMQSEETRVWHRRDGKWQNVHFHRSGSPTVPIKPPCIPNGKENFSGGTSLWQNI
Assay [13] deals with Receptor-type tyrosine-protein kinase FLT3 (Homo sapiens) (UniProt P36888). Put plainly: Inhibition of human FLT3 catalytic domain expressed in baculovirus assessed as substrate phosphorylation using fluorescence-labelled peptides as substrate at 1000 uM after 90 mins by microfluidic peptide phosphorylation assay.
Chain of Receptor-type tyrosine-protein kinase FLT3 (Homo sapiens) (P36888 whole entry, the tested form may be a part): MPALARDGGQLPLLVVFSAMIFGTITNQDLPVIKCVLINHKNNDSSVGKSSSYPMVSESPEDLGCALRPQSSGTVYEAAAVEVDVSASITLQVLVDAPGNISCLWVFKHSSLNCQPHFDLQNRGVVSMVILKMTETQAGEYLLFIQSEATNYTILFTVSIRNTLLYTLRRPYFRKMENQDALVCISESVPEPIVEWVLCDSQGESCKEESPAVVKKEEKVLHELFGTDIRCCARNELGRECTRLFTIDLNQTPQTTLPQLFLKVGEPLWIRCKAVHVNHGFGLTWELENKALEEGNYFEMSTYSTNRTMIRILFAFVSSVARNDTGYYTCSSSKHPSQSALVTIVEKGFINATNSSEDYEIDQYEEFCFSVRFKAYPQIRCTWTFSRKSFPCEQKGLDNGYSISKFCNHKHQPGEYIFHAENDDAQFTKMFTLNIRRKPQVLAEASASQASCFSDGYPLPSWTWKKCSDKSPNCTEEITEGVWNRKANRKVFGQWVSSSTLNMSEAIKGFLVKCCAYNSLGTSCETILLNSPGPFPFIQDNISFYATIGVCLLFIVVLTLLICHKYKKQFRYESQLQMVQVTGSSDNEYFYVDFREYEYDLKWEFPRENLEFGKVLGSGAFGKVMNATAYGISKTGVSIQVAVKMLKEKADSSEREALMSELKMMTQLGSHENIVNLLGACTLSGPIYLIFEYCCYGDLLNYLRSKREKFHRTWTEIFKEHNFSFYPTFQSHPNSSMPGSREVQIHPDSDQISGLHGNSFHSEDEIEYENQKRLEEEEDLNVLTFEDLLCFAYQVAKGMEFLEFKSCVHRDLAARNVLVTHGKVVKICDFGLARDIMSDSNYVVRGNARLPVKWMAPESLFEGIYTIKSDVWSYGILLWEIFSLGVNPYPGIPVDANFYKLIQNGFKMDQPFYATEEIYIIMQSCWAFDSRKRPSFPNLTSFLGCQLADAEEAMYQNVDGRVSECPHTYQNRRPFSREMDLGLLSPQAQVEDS

Chain of Casein kinase I isoform delta (Homo sapiens) (P48730 whole entry, looked up, the tested form may be a part, canonical isoform): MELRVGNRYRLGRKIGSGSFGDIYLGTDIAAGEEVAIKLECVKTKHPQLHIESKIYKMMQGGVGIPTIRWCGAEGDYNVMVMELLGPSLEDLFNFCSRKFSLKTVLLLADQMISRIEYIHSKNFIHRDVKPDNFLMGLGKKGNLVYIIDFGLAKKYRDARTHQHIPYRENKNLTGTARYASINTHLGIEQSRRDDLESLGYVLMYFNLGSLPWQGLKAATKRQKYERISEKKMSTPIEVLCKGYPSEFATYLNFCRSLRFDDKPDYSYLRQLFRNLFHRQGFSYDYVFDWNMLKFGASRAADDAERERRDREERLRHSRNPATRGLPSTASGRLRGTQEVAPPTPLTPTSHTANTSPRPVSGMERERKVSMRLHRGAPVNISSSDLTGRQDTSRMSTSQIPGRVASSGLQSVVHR
Chain of Protein kinase C eta type (Homo sapiens) (P24723 whole entry, the tested form may be a part): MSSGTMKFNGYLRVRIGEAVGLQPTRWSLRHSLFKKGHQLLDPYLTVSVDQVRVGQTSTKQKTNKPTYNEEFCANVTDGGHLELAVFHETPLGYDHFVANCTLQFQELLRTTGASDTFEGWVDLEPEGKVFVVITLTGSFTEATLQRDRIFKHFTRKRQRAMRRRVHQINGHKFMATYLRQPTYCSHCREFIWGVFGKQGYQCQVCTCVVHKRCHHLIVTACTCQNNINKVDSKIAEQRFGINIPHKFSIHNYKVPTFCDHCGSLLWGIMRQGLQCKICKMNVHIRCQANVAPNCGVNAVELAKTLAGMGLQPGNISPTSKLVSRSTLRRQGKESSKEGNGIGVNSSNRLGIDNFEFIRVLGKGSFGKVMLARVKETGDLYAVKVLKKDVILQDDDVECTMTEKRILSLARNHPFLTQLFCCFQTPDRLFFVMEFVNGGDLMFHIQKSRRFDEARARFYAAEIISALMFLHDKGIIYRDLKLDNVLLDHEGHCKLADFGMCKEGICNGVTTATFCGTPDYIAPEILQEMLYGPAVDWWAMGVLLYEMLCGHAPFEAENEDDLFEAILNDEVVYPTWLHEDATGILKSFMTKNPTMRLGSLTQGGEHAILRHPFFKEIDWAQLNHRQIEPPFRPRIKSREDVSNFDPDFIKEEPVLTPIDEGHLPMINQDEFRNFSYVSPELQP

`NCC1CCN(c2ncnc3[nH]ccc23)CC1`: in [1], the inhibition worked out at 50%.
`c1nc(N2CCOCC2)c2nc[nH]c2n1`: the values for the inhibition in [2] and in assay [3] were 64.5% and 41.5%, respectively.
`C[C@H](CN(C)C)Oc1nc(Nc2cc3cccc(Cl)c3cn2)cnc1C#N` returned an inhibition in [4] of 0%.
As for `NC1(Cc2ccc(Cl)cc2)CCN(c2ncnc3[nH]ccc23)CC1`, in [5], the inhibition is 0%.
`Clc1ccc(C2(c3ccc(-c4ncnc5[nH]cnc45)cc3)CCNCC2)cc1`: the inhibition in assay [6] worked out at 8.5%.
Take `NCC1CN(c2ncnc3[nH]c4cnccc4c23)CCO1` (stereo not drawn): the values for the inhibition in assay [7] and in assay [8] were 41.5% and 39.5%, respectively.
`NC1CCN(c2ncnc3[nH]ccc23)CC1`: the inhibition in [9] was 0%.
With `NCCc1ccc(-c2ncnc3[nH]cnc23)cc1`, the inhibition turned out to be 86.5% in assay [10] and 0% in assay [11].
For `c1cnc2[nH]ccc2c1`, the values for the inhibition in [12] and in assay [13] were 37.5% and 75.5%, respectively.

These data come from ChEMBL document CHEMBL3132769, “Fragment growing to retain or alter the selectivity of anchored kinase hinge-binding fragments” (Medchemcomm, 2014).
